Data: the supplement of paper PMC3937590

What was measured:
Assay in all cases: -log10 GI50 (growth inhibition 50%) (-log10(M)); higher = more potent growth inhibition
[1] = test system: 600MPE
How it was run: (§1)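 Dose-response data came from breast cancer cell lines exposed to each compound for 72 hours at nine doses in 1:5 serial dilution, in triplicate, and read by luminescence relative to a time-zero plate. A Gompertz curve fitted by nonlinear least squares gave GI50, the molar concentration for the set level of growth inhibition, reported as its negative logarithm to base 10. Where a value equals the top dose, it carries a < qualifier.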

[2] = test system: AU565
How it was run: as §1

[3] = test system: BT549
How it was run: as §1

[4] = test system: HCC1143
How it was run: as §1

[5] = test system: HCC1419
How it was run: as §1

[6] = test system: HCC1428
How it was run: as §1

[7] = test system: HCC1569
How it was run: as §1

[8] = test system: HCC1806
How it was run: as §1

[9] = test system: HCC1937
How it was run: as §1

[10] = test system: HCC1954
How it was run: as §1

[11] = test system: HCC38
How it was run: as §1

[12] = test system: MDAMB134VI
How it was run: as §1

[13] = test system: MDAMB157
How it was run: as §1

[14] = test system: MDAMB231
How it was run: as §1

[15] = test system: MDAMB361
How it was run: as §1

[16] = test system: SUM159PT
How it was run: as §1

[17] = test system: SUM225CWN
How it was run: as §1

[18] = test system: SUM229PE
How it was run: as §1

[19] = test system: T47D_KBluc
How it was run: as §1

[20] = test system: ZR75B
How it was run: as §1

Structure (SMILES)	-log10 GI50 [3]	-log10 GI50 [4]	-log10 GI50 [5]	-log10 GI50 [6]	-log10 GI50 [7]	-log10 GI50 [8]	-log10 GI50 [9]	-log10 GI50 [10]	-log10 GI50 [11]	-log10 GI50 [12]	-log10 GI50 [13]	-log10 GI50 [14]	-log10 GI50 [15]	-log10 GI50 [19]	-log10 GI50 [1]	-log10 GI50 [2]	-log10 GI50 [16]	-log10 GI50 [17]	-log10 GI50 [18]	-log10 GI50 [20]
CCNCCCCNCCCCNCCCCNCCCCNC/C=C/CNCCCCNCCCCNCCCCNCCCCNCC	6.53	6.88	6.51	6.33	4.74	6.71	4.95	6.57	6.81	6.38	6.97	4.67	5.78	6.46	6.49	6.31	6.6	5.49	6.24	6.38
Cn1ncc(Cl)c1-c1cc(C(=O)N[C@H](CN)Cc2ccc(F)c(F)c2)oc1Cl	5.45	5.41	7.72	4.94	6.55	5.25	–	–	5.99	5.2	5.22	5.09	6.65	6.48	–	6.09	6.28	6.88	5.59	–
Nc1[nH]nc2nnc(-c3c(-c4ccccc4)nn4ccccc34)cc12	< 4	4.6	4.88	4.56	< 4	–	< 4	< 4.48	4.24	< 4	< 4	–	4.67	< 4	4.65	< 4.48	< 4.48	4.62	< 4.48	4.56
Oc1cc(-c2nc(-c3ccccc3)[nH]c2-c2ccncc2)ccc1Cl	< 4.48	4.39	4.79	4.97	4.77	4.9	4.84	< 4.48	4.77	4.85	4.88	4.87	4.76	–	5.07	< 4.48	4.78	5.15	4.52	4.51
CC(C(C)N1CC(=O)NC(=O)C1)N1CC(=O)NC(=O)C1 (centres undefined) [ICRF-193]	< 4.3	< 4.3	< 4.3	< 4.3	< 4.3	< 4.3	< 4.3	4.82	6.53	4.32	5.16	–	4.39	< 4.48	< 4.3	6.14	6.53	< 4.48	6.14	6.6
CC[C@H](CO)Nc1nc(NCc2ccccc2O)c2ncn(C(C)C)c2n1 [Olomoucine II]	5.66	5.51	5.36	5.29	5.28	5.06	5.2	4.95	5.53	5.23	5.23	5.17	5.01	–	5.23	5.33	5.32	5.28	5.13	5.23
CCN(CC)CCNC(=O)c1c(C)[nH]c(/C=C2\C(=O)Nc3ccc(F)cc32)c1C [Sunitinib malate]	5.29	5.16	4.72	5.29	5.14	5.3	5.16	5.26	5.24	4.97	5.21	5.44	4.92	5.12	5.4	5.42	5.81	5.21	5.46	–
Cc1cc(C(=O)N2CCN(c3cccc(Cl)c3)CC2)n(-c2ccccc2)n1 [XRP44X]	5.83	5.69	< 3.88	5.85	4.6	5.97	< 3.88	6.3	5.77	6.09	5.95	5.98	6	–	< 3.88	6.35	6.21	5.5	6.6	5.9

Continued, in another order:

-log10 GI50 [3]	-log10 GI50 [4]	-log10 GI50 [5]	-log10 GI50 [6]	-log10 GI50 [7]	-log10 GI50 [8]	-log10 GI50 [9]	-log10 GI50 [10]	-log10 GI50 [11]	-log10 GI50 [12]	-log10 GI50 [13]	-log10 GI50 [14]	-log10 GI50 [15]	-log10 GI50 [19]	Structure (SMILES)	-log10 GI50 [1]	-log10 GI50 [2]	-log10 GI50 [16]	-log10 GI50 [17]	-log10 GI50 [18]	-log10 GI50 [20]
5.47	6.07	5.32	4.56	5.69	< 4	5.23	< 4.48	6.21	5.03	5.66	< 4.3	5.41	< 4.3	COc1cc2c(Nc3ccc(NC(=O)c4ccccc4)cc3)ncnc2cc1OCCCN1CCOCC1	< 4	5.82	6.14	4.98	5.93	–
5.44	5.7	4.73	5.13	5.68	6.11	5.25	5.45	5.63	5.57	5.71	5.47	5.44	5.31	C[C@@H](Oc1cc(-c2cnn(C3CCNCC3)c2)cnc1N)c1c(Cl)ccc(F)c1Cl	6.21	5.55	5.79	–	5.57	5.64
< 4.48	< 4.18	< 4.18	< 4.18	< 4.18	< 4.18	< 4.48	< 4.48	< 4.48	< 4.18	< 4.18	< 4.18	< 4.18	< 4.18	O=C(O)c1ccc(-c2c[nH]c3ncc(-c4ccccc4)cc23)cc1C1CCCC1	< 4.18	< 4.48	< 4.48	–	5.8	< 4.18
5.87	5.86	8.53	5.76	6.56	6.27	5.68	6.91	5.74	5.44	5.61	5.51	8.21	5.45	CN(C)C/C=C/C(=O)Nc1cc2c(Nc3ccc(F)c(Cl)c3)ncnc2cc1O[C@H]1CCOC1 [BIBW2992]	5.63	–	5.59	8.03	5.95	5.52
6.88	5.83	8.4	5.06	5.15	4.61	6.1	–	6.25	7.27	4.63	4.27	8.35	5	CO[C@H]1C[C@@H]2CC[C@@H](C)[C@@](O)(O2)C(=O)C(=O)N2CCCC[C@H]2C(=O)O[C@H]([C@H](C)C[C@@H]2CC[C@@H](OCCO)[C@H](OC)C2)CC(=O)[C@H](C)/C=C(\C)[C@@H](O)[C@@H](OC)C(=O)[C@H](C)C[C@H](C)/C=C/C=C/C=C/1C [Everolimus]	4.7	–	6.36	7.62	4.75	–
5.4	5.3	5.36	5.4	5.48	5.99	5.59	5.77	5.45	5.26	5.74	5.44	5.24	5.38	O=C(c1ccc(Nc2nccc(-c3cc4ccccc4s3)n2)cc1)N1CCC(N2CCCC2)CC1 [IKK 16]	5.11	5.58	5.8	5.51	6	–
7.04	6.8	6.8	6.46	6.68	6.5	6.82	–	6.6	6.63	6.76	6.59	6.62	6.77	CC(C)C[C@@H](C=O)NC(=O)[C@H](CC(C)C)NC(=O)[C@H](CC(C)C)NC(=O)OCc1ccccc1 [MG-132]	6.3	7.05	7.27	7.01	6.98	6.4
4.99	5.13	5.66	5.16	< 4.48	5.11	5.15	5.01	4.78	5.06	5.09	4.91	4.97	< 4.48	Cc1c(O)cccc1C(=O)N[C@@H](CSc1ccccc1)[C@H](O)CN1C[C@H]2CCCC[C@H]2C[C@H]1C(=O)NC(C)(C)C [Nelfinavir]	5.05	< 4.48	4.76	–	4.84	5.13
8.16	7.8	7.04	7.58	7.95	8.11	7.81	8.15	8.13	7.99	8.27	8.37	7.79	7.84	CC(=O)O[C@H]1C(=O)[C@@]2(C)[C@H]([C@H](OC(=O)c3ccccc3)[C@]3(O)C[C@H](OC(=O)[C@H](O)[C@@H](NC(=O)c4ccccc4)c4ccccc4)C(C)=C1C3(C)C)[C@]1(OC(C)=O)CO[C@@H]1C[C@@H]2O [Paclitaxel]	7.51	8.14	8.24	–	7.72	7.38
5.33	6.27	8.36	7.29	6.7	4.01	5.91	8.45	7.31	9.57	< 3.78	5.78	6.22	5.65	CO[C@H]1C[C@@H]2CC[C@@H](C)[C@@](O)(O2)C(=O)C(=O)N2CCCC[C@H]2C(=O)O[C@H]([C@H](C)C[C@@H]2CC[C@@H](O)[C@H](OC)C2)CC(=O)[C@H](C)/C=C(\C)[C@@H](O)[C@@H](OC)C(=O)[C@H](C)C[C@H](C)/C=C/C=C/C=C/1C [Rapamycin]	5.12	7.62	7.34	7.97	4.86	–
6.61	5.8	7.27	5.25	5.49	4.69	6.36	6.66	4.91	6.89	4.63	–	6.56	4.56	CO[C@H]1C[C@@H]2CC[C@@H](C)[C@@](O)(O2)C(=O)C(=O)N2CCCC[C@H]2C(=O)O[C@H]([C@H](C)C[C@@H]2CC[C@@H](OC(=O)C(C)(CO)CO)[C@H](OC)C2)CC(=O)[C@H](C)/C=C(\C)[C@@H](O)[C@@H](OC)C(=O)[C@H](C)C[C@H](C)/C=C/C=C/C=C/1C [Temsirolimus]	4.74	–	–	5.6	4.87	6.97
